{"source": "patent US11324720B2", "about": "“Antiproliferative DNA polymerase inhibitor” (NEW YORK MEDICAL COLLEGE, priority 2018, dated 2022)", "key": {"[1]": {"target": "T1, Pol δ (Homo sapiens, UniProt P28340)", "T1 construct": "made in house; host or cells: insect cells (Pol δ); E. coli (PCNA)", "T1 sequence (P28340 whole entry)": "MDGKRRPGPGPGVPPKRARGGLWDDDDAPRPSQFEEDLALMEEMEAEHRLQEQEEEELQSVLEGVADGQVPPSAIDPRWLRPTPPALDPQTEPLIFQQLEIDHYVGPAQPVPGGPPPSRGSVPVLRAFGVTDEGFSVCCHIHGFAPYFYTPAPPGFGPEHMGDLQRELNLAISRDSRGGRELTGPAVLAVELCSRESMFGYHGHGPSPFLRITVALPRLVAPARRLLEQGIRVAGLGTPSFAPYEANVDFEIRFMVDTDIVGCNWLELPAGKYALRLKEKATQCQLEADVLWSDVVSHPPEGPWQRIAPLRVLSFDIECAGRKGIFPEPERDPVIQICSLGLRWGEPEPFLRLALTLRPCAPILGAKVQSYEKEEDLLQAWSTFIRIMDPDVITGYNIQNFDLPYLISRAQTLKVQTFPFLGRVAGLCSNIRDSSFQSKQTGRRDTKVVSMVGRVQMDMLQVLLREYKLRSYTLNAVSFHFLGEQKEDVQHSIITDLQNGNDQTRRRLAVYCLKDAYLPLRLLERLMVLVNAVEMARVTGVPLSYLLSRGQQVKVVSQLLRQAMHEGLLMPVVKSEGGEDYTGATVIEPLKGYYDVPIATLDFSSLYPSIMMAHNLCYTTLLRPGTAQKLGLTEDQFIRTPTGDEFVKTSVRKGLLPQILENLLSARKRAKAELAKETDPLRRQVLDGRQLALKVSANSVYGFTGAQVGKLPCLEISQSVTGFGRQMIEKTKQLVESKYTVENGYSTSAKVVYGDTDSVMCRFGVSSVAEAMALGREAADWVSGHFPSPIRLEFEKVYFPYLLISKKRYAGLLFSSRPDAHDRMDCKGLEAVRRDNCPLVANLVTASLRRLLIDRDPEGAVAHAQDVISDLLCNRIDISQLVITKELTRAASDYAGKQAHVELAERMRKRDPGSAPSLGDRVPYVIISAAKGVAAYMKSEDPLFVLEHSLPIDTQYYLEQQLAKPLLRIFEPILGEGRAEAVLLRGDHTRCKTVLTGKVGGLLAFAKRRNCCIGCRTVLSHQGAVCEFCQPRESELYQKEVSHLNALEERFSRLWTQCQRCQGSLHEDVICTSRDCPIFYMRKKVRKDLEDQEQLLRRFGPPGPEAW", "T1 sequence (P49005 whole entry partner)": "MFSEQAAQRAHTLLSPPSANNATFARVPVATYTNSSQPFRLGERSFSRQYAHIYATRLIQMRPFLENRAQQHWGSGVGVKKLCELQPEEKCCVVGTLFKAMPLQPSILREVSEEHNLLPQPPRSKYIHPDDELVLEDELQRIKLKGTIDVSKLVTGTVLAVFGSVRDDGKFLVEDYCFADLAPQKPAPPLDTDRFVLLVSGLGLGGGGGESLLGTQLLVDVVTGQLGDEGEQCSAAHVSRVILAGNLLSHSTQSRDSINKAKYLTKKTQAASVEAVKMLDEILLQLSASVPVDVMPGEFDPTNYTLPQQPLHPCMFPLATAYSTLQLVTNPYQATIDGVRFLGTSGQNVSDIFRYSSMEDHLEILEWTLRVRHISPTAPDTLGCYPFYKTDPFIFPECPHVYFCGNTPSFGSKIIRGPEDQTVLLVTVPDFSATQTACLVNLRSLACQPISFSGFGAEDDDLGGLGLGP", "T1 sequence (Q15054 whole entry partner)": "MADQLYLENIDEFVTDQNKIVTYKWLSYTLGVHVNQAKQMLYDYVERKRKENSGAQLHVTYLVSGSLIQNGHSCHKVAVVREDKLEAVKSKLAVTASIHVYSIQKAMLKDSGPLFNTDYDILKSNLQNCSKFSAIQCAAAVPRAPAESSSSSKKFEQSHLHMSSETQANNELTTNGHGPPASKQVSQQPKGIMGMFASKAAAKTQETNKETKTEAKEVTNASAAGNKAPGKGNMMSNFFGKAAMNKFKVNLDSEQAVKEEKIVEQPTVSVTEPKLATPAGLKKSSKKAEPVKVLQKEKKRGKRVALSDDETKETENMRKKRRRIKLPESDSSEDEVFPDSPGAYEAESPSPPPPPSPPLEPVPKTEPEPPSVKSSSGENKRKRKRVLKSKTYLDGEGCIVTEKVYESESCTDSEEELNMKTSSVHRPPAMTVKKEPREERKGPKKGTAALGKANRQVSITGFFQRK", "T1 sequence (P12004 whole entry partner)": "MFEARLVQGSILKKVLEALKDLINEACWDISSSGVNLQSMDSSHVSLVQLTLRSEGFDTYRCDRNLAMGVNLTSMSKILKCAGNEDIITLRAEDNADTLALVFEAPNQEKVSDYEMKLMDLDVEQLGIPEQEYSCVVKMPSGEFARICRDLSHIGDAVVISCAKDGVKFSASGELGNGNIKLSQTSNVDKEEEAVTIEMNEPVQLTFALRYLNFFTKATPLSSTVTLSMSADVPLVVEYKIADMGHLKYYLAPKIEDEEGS", "test": "poly(dA)/oligo(dT) DNA polymerase assay", "format": "biochemical", "text": "In order to validate the predicted inhibitory properties of zelpolib, we used the well-established DNA polymerase assay, poly(dA)/oligo(dT) method^1,16, to quantify the inhibition constants. In this assay, a poly(dA) template (up to 4 kilobases) was randomly primed with oligo(dT) primers (40 mer). In the presence of proliferating cell nuclear antigen (PCNA), Pol δ will initiate the elongation of oligo dT primer with the incorporation of radio-labeled deoxythymidine (^3H). The polymerase activity can then be precisely quantified by counting the isotope incorporated.\nA model structure of the catalytic domain of human Pol δ was generated based on the structure of yeast pol δ^72 by SWISSPDB^73. The primary sequences of both proteins are conserved and the active sites structures were virtually identical between the model structure and that of yeast pol δ. […] Subsequently, the 300 compounds with the highest scores were selected and analyzed by Pymol. […]\nThree different assays are used to analyze DNA polymerase activities and the impact of zelpolib. The poly(dA)/oligo(dT) assay^1,16 were used for precisely quantification as reported. […] [3H]dTMP incorporation was read on liquid scintillation counter. […]"}, "[2]": {"tested_on": "BxPC-3 cells", "test": "EdU incorporation by laser scanning cytometry", "format": "cell-based, human", "settings": "10 and 20 μM; 1 to 2 hours pre-incubation, then EdU pulse"}, "[3]": {"target": "T1, Pol δ", "test": "primer extension assay (25 mer primer/40 mer template)", "format": "biochemical", "settings": "20 μM inhibitor", "text": "Next, we investigated the inhibitory properties of zelpolib in a primer extension assay^17,18 with a template that consists of all four deoxynucleotide that is more reflective of cellular DNA replication processes than the pold(A) template. The substrate consisted of a 25 mer primer hybridized to a 40 mer template. In the presence of PCNA and dNTPs, the primers were extended upon addition of Pol δ and a full extension would generate a 40 mer copy of the template. The primers were labeled at the 5′-end with ^32P, and the products were separated on a sequencing gel for visualization and quantification. […] The idea originated from the fact that most kinase inhibitors compete for binding with ATP. It is conceivable that they might compete with dATP for binding to polymerases. We randomly selected 10 small-molecule-cancer drugs with nine being kinase inhibitors^19 and one parp inhibitor (olaparib)^20. […] In the presence of any other inhibitors, at least 30% of the primers were extended.\nRecombinant Pol […] were expressed in insect cells and purified as reported previously^18. […]\nBriefly, the standard reaction mixture contained 5 μM dNTP, 5 mM MgCl2, 50 mM Tris-HCl (pH 7.5), 2 mM dithiothreitol, […] BSA, 50 mM NaCl, 20 nM primer/template, 50 nM PCNA, 10 nM Pol δ and variable concentrations of inhibitors. […] Products was visualized on phosphorimager and quantitated using Image-J software. […]"}, "[4]": {"target": "T1, Pol δ", "test": "single nucleotide primer extension (incorporation) assay", "format": "biochemical", "settings": "single dNTP present", "description": "In our in silico screening, the active site cavity was created by the removal of dCTP in the original crystal structure. […] Therefore, we assayed the inhibition patterns of 4 individual dNTP molecules in a single nucleotide incorporation assays. In this assay, only one nucleotide is present for the primer extension for the next appropriate base paring to the template.\nBriefly, the standard reaction mixture contained 5 μM dNTP, 5 mM MgCl2, 50 mM Tris-HCl (pH 7.5), 2 mM dithiothreitol, […] BSA, 50 mM NaCl, 20 nM primer/template, 50 nM PCNA, 10 nM Pol δ and variable concentrations of inhibitors. The reactions were initiated by addition of dNTPs and MgCl2. Reaction was allowed to proceed at 25° C. for 2 min before addition of stop buffer (95% formamide/25 mM EDTA). The products were separated on a 20% polyacrylamide gels urea. Products was visualized on phosphorimager and quantitated using Image-J software. For single nucleotide primer extension assay^18, the protocol is identical to primer extension assay except a single dNTP is used."}}}
{"smiles": "COC(=O)c1cc(-c2ccccc2)sc1NC(=S)NNC(=O)CCc1ccc(O)c(O)c1", "note": "[zelpolib]", "values": [{"measurement": "inhibition of Pol δ activity at 10 μM", "setting": "[1]; assayed at 10 μM", "value": "significant inhibition"}, {"measurement": "Ki", "setting": "[1]; non-competitive against dTTP, with PCNA, R^2=0.99, read-out: inhibition constant Ki of Pol δ activity", "value": 4.3, "unit": "µM"}, {"measurement": "EdU incorporation versus sham treatment", "setting": "[2]", "value": "significant reduction of EdU incorporation"}, {"measurement": "full-length product (40 mer) formed", "setting": "[3]", "value": "barely detectible"}, {"measurement": "primer unextended", "setting": "[3]", "value": 94, "unit": "%"}, {"measurement": "inhibition of incorporation of individual dNTPs (dATP, dGTP, dCTP, dTTP)", "setting": "[4]", "value": "inhibited the incorporation of all four nucleotides to similar extents in a noncompetitive manner"}]}
